These results are taken from patent US20220298135A1, “5-HETEROARYL-PYRIDIN-2-AMINE COMPOUNDS AS NEUROPEPTIDE FF RECEPTOR ANTAGONISTS” (Domain Therapeutics, priority 2019, published 2022).

For orientation: IC50 means the concentration that inhibits the measured activity by half. Low values mean inhibition by little substance, high ones a need for much substance. By melting point is commonly meant the temperature, or range, at which the solid turns liquid.

Some results are limits rather than exact numbers.

For data set [1], the target named is T1, human NPFFR1 (hNPFFR1) receptor (Homo sapiens, UniProt Q9GZQ6).
T1 construct: expressed in transfected cells; host or cells: HEK-293 T cells, transient co-transfection with polyethylenimine
The data set is described as follows: Human NPFFR1 evaluation using BRET biosensors (antagonist IC50). Format: cell-based. Particulars: hNPFFR1 transiently over-expressed in HEK-293 T cells; BRET signal; stimulation by EC80 RFRP-3. How it is done:
Compounds of the present invention were tested successively for their agonist and antagonist activities on human NPFFR1 (hNPFFR1) receptor transiently over-expressed in HEK-293 T cells. Compounds exert agonist activity if, by themselves in absence of neuropeptide RFRP-3 (also named NPVF) they activate hNPFFR1; and they exert antagonist activity if they decrease the action of RFRP-3 on the receptor.
The assay used to measure compound activity is based on BRET (Bioluminescence Resonance Energy Transfer) biosensors and is designed to monitor the plasma membrane translocation of protein that interacts with specific Ga subunit. The specific effector (luciferase tagged: BRET donor) recruited at the membrane will be in close proximity to a plasma membrane anchor (GFP tagged: BRET acceptor) to induce a BRET signal. Biosensors are described in the patent application WO 2016/041093 A1 (Biosensors for monitoring biomolecule localization and trafficking in cells).
HEK-293 T cells are maintained in Dulbecco's Modified Eagle's Medium supplemented with 10% Foetal Calf Serum, 1% Penicillin/Streptomycin at 37° C./5% CO2.
Cells are co-transfected using polyethylenimine (25 kDa linear) with four DNA plasmids encoding: hNPFFR1, GαoB, a Gi family specific intracellular effector fused to luciferase (BRET donor), a plasma membrane effector fused to GFP (BRET acceptor). After transfection, cells are cultured for 48 h at 37° C./5% CO2.
Receptor activity is detected by changes in BRET signal.
On the day of the assay, cells are detached using trypsin 0.05%, resuspended in assay buffer (1.8 mM CaCl2, 1 mM MgCl2, 2.7 mM KCl, 137 mM NaCl, 0.4 mM NaH2PO4, 5.5 mM D-Glucose, 11.9 mM NaHCO3, 25 mM Hepes) and seeded in 384 well plate at a density of 20,000 cells per well. Then, plates are equilibrated 3.5 hours at 37° C. before adding compounds.
Compounds and luciferase substrate are added to the cells using an automated device (Freedom Evo®, Tecan) and BRET readings are collected on EnVision (PerkinElmer) with specific filters (410 nm BW 80 nm, 515 nm BW 30 nm).
Agonist and antagonist activities of compounds are consecutively evaluated on the same cell plate. Agonist activity is first measured after 10 minutes incubation with compound alone on the cells. Then, cells are stimulated by an EC80 RFRP-3 concentration and luminescence is recorded for additional 10 minutes. EC80 RFRP-3 concentration is the concentration giving 80% of the maximal RFRP-3 response. Agonist or antagonist activities are evaluated in comparison to basal signals evoked by assay buffer or EC80 RFRP-3 alone, respectively.
For IC50 determination, a dose-response test is performed using 20 concentrations (ranging over 6 logs) of each compound. Dose-response curves are fitted using the sigmoidal dose-response (variable slope) analysis in GraphPad Prism software (GraphPad Software) and IC50 of antagonist activity is calculated. Dose-response experiments are performed in duplicate, in two independent experiments.
(In BRET a luciferase serves as donor, and the signal depends on an acceptor being close.)

T1 sequence (Q9GZQ6 whole entry): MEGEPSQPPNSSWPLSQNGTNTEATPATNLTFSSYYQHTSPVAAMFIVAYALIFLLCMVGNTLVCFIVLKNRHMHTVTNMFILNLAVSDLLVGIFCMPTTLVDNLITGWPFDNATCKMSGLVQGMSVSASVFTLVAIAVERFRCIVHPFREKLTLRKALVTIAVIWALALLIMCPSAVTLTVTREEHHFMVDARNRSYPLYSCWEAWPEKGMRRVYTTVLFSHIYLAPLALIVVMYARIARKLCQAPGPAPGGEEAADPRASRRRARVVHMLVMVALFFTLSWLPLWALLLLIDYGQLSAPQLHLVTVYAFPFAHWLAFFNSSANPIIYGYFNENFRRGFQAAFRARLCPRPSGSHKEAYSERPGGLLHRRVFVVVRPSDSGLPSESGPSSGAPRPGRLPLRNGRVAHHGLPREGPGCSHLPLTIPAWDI

On to `CCc1nc(N)ccc1-c1c(F)ccc2ccc(N3CC4CCC(C3)O4)nc12.Cl` [Example 136, 5-(2-(8-oxa-3-azabicyclo[3.2.1]octan-3-yl)-7-fluoroquinolin-8-yl)-6-ethylpyridin-2-amine], for which the melting point lay within 140 to 172 °C. Also, in data set [1], the half-maximal inhibitory concentration (IC50) is under 100 nM.
As for `Nc1ccc(-c2cncc3ccccc23)c(N)n1` [Example 36, 3-Isoquinolin-4-yl-pyridine-2,6-diamine], the melting point was 180 to 185 °C. The molecule also came in with an IC50 in data set [1] of over 1000 nM.
Turning to `CCc1nc(N)ccc1-c1c(F)c(F)cc2cc(O)cnc12.Cl` [Example 112, 8-(6-amino-2-ethylpyridin-3-yl)-6,7-difluoroquinolin-3-ol], the melting point was in the range of 204 to 210 °C. Besides, in data set [1], the IC50 fell in the range of 100 to 1000 nM.
As for `CCc1nc(N)ccc1-c1ccccc1-c1ccc(O)nc1.Cl` [Example 88, 5-(2-(6-amino-2-ethylpyridin-3-yl)phenyl)pyridin-2-ol], the melting point was 95 to 120 °C. Besides, the IC50 in data set [1] was 100 to 1000 nM.
In turn, `CCc1nc(N)ccc1-c1cccc2ccc(C3CCCCC3)nc12.Cl` [Example 118, 5-(2-cyclohexylquinolin-8-yl)-6-ethylpyridin-2-amine] displayed a melting point of 137 to 142 °C. In data set [1], this molecule registered an IC50 of under 100 nM.
For `CCc1nc(N)ccc1-c1cccc2ccc(C(=O)N3CCCOCC3)nc12.Cl` [Example 167, (8-(6-amino-2-ethylpyridin-3-yl)quinolin-2-yl)(1,4-oxazepan-4-yl)methanone], in that order: 120 to 131 °C and under 100 nM.
For `Cc1ccc2ccc(F)c(-c3ccc(N)nc3N)c2n1.Cl` [Example 23, 3-(7-fluoro-2-methylquinolin-8-yl)pyridine-2,6-diamine], in that order: 130 to 170 °C and under 100 nM.
On to `CCc1nc(N)ccc1-c1cccc2ccc(N)nc12.Cl.Cl` [Example 92, 8-(6-amino-2-ethylpyridin-3-yl)quinolin-2-amine], for which the melting point was in the range of 200 to 250 °C. The IC50 in data set [1] was in the range of 100 to 1000 nM.
Turning to `CCc1nc(N)ccc1-c1csc2ccc(F)cc12.Cl` [Example 43, 6-Ethyl-5-(5-fluorobenzothiophen-3-yl)pyridin-2-amine], the melting point was over 250 °C. This molecule also registered an IC50 in data set [1] of 100 to 1000 nM.
As to `CCc1nc(N)ccc1-c1ccccc1-c1cncc(C)c1.Cl` [Example 85, 6-ethyl-5-(2-(5-methylpyridin-3-yl)phenyl)pyridin-2-amine], the melting point is 120 to 150 °C. This molecule also yielded an IC50 in data set [1] of 100 to 1000 nM.
For `Cl.Nc1ccc(-c2cccc3sccc23)c(N)n1` [Example 51, 3-(benzo[b]thiophen-4-yl)pyridine-2,6-diamine], in that order: 100 to 120 °C and under 100 nM.
In turn, `Nc1ccc(-c2c[nH]c3ccccc23)c(N)n1` [Example 18, 3-(1H-indol-3-yl)pyridine-2,6-diamine] returned a melting point of 152 to 155 °C. This molecule also showed an IC50 in data set [1] of over 1000 nM.
`CCc1nc(N)ccc1-c1c(F)ccc2ccc(=O)[nH]c12.Cl` [Example 158, 8-(6-amino-2-ethylpyridin-3-yl)-7-fluoroquinolin-2(1H)-one] returned a melting point of 172 to 208 °C. In data set [1], this molecule yielded an IC50 of 100 to 1000 nM.
`CCc1nc(N)ccc1-c1c(F)ccc2ccc(N3CCOCC3)nc12.Cl` [Example 135, 6-ethyl-5-(7-fluoro-2-morpholinoquinolin-8-yl)pyridin-2-amine] returned a melting point of 100 to 146 °C. The molecule further came in with an IC50 in data set [1] of under 100 nM.
The molecule `CCc1nc(N)ccc1-c1c(OC(F)F)ccc2cccnc12.Cl` [Example 105, 5-(7-(difluoromethoxy)quinolin-8-yl)-6-ethylpyridin-2-amine] gave a melting point of 120 to 160 °C. In data set [1], this molecule returned an IC50 of under 100 nM.
For `CCOc1ccc2cccc(-c3ccc(N)nc3CC)c2n1.Cl` [Example 94, 5-(2-ethoxyquinolin-8-yl)-6-ethylpyridin-2-amine], in that order: 35 to 70 °C and under 100 nM.
Molecule `CCc1nc(N)ccc1-c1c(C)sc2ccccc12.Cl` [Example 41, 6-Ethyl-5-(2-methylbenzothiophen-3-yl)pyridin-2-amine] displayed a melting point of 70 to 72 °C. In data set [1], this molecule registered an IC50 of 100 to 1000 nM.
In turn, `Cl.Nc1ccc(-c2c(F)ccc3cccnc23)c(CC2CC2)n1` [Example 72, 6-(cyclopropylmethyl)-5-(7-fluoroquinolin-8-yl)pyridin-2-amine] showed a melting point of 170 to 207 °C. The IC50 in data set [1] was under 100 nM.
Molecule `CCc1nc(N)ccc1-c1ccc(F)c2cccnc12.Cl` [Example 1, 6-ethyl-5-(5-fluoroquinolin-8-yl)pyridin-2-amine] yielded a melting point of 120 to 140 °C. This molecule had an IC50 in data set [1] of under 100 nM.
Take `CC(C)c1nc(N)ccc1-c1cccc2ccncc12.Cl` [Example 12, 6-Isopropyl-5-(8-isoquinolyl)pyridin-2-amine]: the melting point was over 250 °C. In data set [1], this molecule had an IC50 of 100 to 1000 nM.
Take `CCc1nc(N)ccc1-c1ccccc1-c1ccc(F)nc1.Cl` [Example 87, 6-ethyl-5-(2-(6-fluoropyridin-3-yl)phenyl)pyridin-2-amine]: the melting point was over 250 °C. For the same molecule, in data set [1], the IC50 lay within 100 to 1000 nM.
On to `Cl.Nc1ccc(-c2cccc3scnc23)c(N)n1` [Example 30, 3-(1,3-Benzothiazol-4-yl)pyridine-2,6-diamine], for which the melting point is over 250 °C. Besides, the IC50 in data set [1] was 100 to 1000 nM.
In turn, `CCc1nc(N)ccc1-c1cccc2c1NCC2.Cl` [Example 164, 6-ethyl-5-(indolin-7-yl)pyridin-2-amine] returned a melting point of 175 to 183 °C. Besides, the IC50 in data set [1] lay in the range of 100 to 1000 nM.
For `CCc1nc(N)ccc1-c1cccc2ccc(N3CCCOCC3)nc12.Cl` [Example 133, 5-(2-(1,4-oxazepan-4-yl)quinolin-8-yl)-6-ethylpyridin-2-amine], the melting point was in the range of 50 to 90 °C. Moreover, the 50% inhibitory concentration (IC50) in data set [1] was under 100 nM.
On to `CCc1nc(N)ccc1-c1c(OC)ccc2cccnc12.Cl` [Example 98, 6-ethyl-5-(7-methoxyquinolin-8-yl)pyridin-2-amine], for which the melting point lay in the range of 230 to 250 °C. The concentration for half-maximal inhibition (IC50) in data set [1] was under 100 nM.
As to `CCc1nc(N)ccc1-c1cccc2ccc(=O)[nH]c12.Cl` [Example 154, 8-(6-amino-2-ethylpyridin-3-yl)quinolin-2(1H)-one], the melting point was over 250 °C. Moreover, in data set [1], the IC50 lay in the range of 100 to 1000 nM.
`CCc1nc(N)ccc1-c1cccc2cc(F)cnc12.Cl` [Example 97, 6-ethyl-5-(3-fluoroquinolin-8-yl)pyridin-2-amine] registered a melting point of 210 to 245 °C. The molecule also gave an IC50 in data set [1] of under 100 nM.
For `CCc1nc(N)ccc1-c1cc(C)cc2cccnc12.Cl` [Example 77, 6-ethyl-5-(6-methylquinolin-8-yl)pyridin-2-amine], in that order: 100 to 140 °C and under 100 nM.
For the molecule `Cl.Nc1ccc(-c2cccc3cc(F)cnc23)c(N)n1` [Example 58, 3-(3-fluoroquinolin-8-yl)pyridine-2,6-diamine], the melting point was 114 to 116 °C. The molecule further displayed an IC50 in data set [1] of under 100 nM.
For `Cl.Nc1ccc(-c2cc(F)cc3cccnc23)c(N)n1` [Example 52, 3-(6-fluoroquinolin-8-yl)pyridine-2,6-diamine], in that order: over 250 °C and under 100 nM.
The molecule `Cl.Nc1ccc(-c2c(F)ccc3cccnc23)c(CCC(F)(F)F)n1` [Example 69, 5-(7-fluoroquinolin-8-yl)-6-(3,3,3-trifluoropropyl)pyridin-2-amine] came in with a melting point of 85 to 145 °C. In data set [1], this molecule registered an IC50 of 100 to 1000 nM.
The molecule `CCc1nc(N)ccc1-c1cccc2ccc(C(F)(F)F)nc12.Cl` [Example 99, 6-ethyl-5-(2-(trifluoromethyl)quinolin-8-yl)pyridin-2-amine] gave a melting point of 90 to 130 °C. Further, the IC50 in data set [1] was under 100 nM.
